Like-named read-outs stand apart in the source and are kept apart here.
How the values were obtained:
[1] = target: T1, protein kinases (human kinome) (Homo sapiens, UniProt Q969Z0); assay type: cell-based; conditions: Accession Q969Z0-1; experiment wp084; direction down
T1 sequence (Q969Z0 108-631): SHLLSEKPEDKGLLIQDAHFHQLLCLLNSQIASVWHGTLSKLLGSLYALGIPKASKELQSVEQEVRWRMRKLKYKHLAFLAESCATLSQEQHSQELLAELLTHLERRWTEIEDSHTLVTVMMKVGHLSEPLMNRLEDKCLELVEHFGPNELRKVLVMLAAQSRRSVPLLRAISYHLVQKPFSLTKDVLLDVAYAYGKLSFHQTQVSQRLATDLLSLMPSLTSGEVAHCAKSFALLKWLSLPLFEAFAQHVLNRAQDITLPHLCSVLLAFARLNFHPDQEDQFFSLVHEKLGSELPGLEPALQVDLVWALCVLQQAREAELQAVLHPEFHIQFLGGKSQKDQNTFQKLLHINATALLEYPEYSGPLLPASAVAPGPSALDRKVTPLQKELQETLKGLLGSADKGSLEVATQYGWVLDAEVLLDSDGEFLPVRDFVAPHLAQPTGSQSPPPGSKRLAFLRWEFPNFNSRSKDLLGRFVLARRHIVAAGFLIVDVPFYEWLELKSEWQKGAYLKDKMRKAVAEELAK

[2] = target: T2, extended human kinome (kinase-like proteins) (Homo sapiens, UniProt Q9UHH9); experiment: Whole cell quantitative proteomics: extended kinome hits; conditions: Accession Q9UHH9
T2 sequence (Q9UHH9 1-426): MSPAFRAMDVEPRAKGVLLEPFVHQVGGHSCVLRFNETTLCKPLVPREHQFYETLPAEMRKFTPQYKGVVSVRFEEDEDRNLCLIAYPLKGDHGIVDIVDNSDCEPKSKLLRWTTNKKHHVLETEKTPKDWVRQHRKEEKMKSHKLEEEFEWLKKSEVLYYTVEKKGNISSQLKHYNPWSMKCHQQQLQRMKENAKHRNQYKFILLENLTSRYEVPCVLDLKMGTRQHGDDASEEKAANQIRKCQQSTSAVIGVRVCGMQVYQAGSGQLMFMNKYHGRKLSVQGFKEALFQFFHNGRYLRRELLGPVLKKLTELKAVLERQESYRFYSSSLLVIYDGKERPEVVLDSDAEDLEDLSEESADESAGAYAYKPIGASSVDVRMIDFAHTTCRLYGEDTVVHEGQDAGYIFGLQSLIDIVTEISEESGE

[3] = target: protein kinases (human kinome) (Homo sapiens, UniProt P31751); assay type: cell-based; conditions: AKT2 (P31751), experiment wp135, 8 hr
protein kinases (human kinome) (Homo sapiens, UniProt P31751), sequence (P31751 whole entry): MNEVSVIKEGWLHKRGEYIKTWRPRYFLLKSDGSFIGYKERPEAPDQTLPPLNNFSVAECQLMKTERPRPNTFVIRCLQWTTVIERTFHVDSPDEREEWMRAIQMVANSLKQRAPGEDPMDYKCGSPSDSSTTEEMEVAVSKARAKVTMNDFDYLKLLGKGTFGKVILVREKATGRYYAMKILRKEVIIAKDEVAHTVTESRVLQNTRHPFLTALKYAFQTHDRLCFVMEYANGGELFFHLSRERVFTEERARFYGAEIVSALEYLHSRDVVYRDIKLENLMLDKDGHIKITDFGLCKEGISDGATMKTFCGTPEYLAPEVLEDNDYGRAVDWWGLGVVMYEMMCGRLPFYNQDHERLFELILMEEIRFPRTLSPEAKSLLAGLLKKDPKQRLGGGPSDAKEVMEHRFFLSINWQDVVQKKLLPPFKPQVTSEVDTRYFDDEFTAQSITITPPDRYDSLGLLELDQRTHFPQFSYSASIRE

[4] = target: protein kinases (human kinome) (Homo sapiens, UniProt P31749); assay type: cell-based
protein kinases (human kinome) (Homo sapiens, UniProt P31749), sequence (P31749 whole entry): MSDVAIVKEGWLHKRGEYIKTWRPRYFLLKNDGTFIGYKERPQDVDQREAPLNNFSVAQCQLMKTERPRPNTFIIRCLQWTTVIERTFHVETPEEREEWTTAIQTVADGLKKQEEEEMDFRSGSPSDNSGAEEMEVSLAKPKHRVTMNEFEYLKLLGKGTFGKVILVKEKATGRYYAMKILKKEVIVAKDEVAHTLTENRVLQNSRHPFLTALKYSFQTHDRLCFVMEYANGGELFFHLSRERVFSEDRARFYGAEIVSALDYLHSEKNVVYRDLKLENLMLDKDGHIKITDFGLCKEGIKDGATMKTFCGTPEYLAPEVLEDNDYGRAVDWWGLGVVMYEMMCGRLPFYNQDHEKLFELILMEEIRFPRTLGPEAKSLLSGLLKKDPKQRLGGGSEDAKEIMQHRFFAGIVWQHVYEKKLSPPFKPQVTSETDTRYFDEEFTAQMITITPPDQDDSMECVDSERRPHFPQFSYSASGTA

[5] = target: protein kinases (human kinome) (Homo sapiens, UniProt P11802); assay type: cell-based; conditions: experiment wp135, 8 hr
protein kinases (human kinome) (Homo sapiens, UniProt P11802), sequence (P11802 whole entry): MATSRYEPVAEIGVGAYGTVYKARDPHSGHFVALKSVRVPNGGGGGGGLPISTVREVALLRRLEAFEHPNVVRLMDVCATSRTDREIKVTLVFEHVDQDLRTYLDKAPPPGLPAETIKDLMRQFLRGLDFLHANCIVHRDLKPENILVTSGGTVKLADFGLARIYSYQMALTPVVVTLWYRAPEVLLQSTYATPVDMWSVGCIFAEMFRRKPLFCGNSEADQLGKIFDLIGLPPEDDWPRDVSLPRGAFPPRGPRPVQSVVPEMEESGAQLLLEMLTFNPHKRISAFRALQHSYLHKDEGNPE

[6] = target: T3, protein kinases (human kinome) (Homo sapiens, UniProt Q9UEE5); assay type: cell-based; conditions: STK17A Q9UEE5
T3 sequence (Q9UEE5 1-414): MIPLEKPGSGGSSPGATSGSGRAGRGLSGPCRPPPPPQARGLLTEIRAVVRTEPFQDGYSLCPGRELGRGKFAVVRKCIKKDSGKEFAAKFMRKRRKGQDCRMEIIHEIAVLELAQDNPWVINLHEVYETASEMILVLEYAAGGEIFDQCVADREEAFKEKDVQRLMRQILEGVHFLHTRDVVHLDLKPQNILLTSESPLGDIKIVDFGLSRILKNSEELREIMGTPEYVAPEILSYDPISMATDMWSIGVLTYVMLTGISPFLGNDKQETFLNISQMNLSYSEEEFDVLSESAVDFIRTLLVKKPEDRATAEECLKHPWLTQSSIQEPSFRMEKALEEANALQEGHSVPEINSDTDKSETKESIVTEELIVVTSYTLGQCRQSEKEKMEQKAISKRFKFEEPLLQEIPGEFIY

[7] = target: protein kinases (human kinome) (Homo sapiens, UniProt Q9Y243); assay type: cell-based; conditions: AKT3 (Q9Y243-1), experiment wp135, 8 hr
protein kinases (human kinome) (Homo sapiens, UniProt Q9Y243), sequence (Q9Y243 whole entry): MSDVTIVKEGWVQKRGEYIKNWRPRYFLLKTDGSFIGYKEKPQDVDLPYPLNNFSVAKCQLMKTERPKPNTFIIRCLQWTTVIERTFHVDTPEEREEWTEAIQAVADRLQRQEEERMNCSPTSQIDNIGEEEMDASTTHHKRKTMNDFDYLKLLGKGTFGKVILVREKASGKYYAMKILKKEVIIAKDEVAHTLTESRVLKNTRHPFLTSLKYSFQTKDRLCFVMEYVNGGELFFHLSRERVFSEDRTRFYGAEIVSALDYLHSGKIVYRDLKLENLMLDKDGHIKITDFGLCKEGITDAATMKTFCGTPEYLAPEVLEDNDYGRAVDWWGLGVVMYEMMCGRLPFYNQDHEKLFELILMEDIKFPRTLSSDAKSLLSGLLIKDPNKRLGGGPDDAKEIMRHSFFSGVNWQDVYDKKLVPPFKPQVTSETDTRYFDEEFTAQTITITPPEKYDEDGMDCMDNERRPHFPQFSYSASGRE

[8] = target: T4, protein kinases (human kinome) (Homo sapiens, UniProt O95835); assay type: cell-based; conditions: LATS1 O95835; experiment wp195
T4 sequence (O95835 1-1130): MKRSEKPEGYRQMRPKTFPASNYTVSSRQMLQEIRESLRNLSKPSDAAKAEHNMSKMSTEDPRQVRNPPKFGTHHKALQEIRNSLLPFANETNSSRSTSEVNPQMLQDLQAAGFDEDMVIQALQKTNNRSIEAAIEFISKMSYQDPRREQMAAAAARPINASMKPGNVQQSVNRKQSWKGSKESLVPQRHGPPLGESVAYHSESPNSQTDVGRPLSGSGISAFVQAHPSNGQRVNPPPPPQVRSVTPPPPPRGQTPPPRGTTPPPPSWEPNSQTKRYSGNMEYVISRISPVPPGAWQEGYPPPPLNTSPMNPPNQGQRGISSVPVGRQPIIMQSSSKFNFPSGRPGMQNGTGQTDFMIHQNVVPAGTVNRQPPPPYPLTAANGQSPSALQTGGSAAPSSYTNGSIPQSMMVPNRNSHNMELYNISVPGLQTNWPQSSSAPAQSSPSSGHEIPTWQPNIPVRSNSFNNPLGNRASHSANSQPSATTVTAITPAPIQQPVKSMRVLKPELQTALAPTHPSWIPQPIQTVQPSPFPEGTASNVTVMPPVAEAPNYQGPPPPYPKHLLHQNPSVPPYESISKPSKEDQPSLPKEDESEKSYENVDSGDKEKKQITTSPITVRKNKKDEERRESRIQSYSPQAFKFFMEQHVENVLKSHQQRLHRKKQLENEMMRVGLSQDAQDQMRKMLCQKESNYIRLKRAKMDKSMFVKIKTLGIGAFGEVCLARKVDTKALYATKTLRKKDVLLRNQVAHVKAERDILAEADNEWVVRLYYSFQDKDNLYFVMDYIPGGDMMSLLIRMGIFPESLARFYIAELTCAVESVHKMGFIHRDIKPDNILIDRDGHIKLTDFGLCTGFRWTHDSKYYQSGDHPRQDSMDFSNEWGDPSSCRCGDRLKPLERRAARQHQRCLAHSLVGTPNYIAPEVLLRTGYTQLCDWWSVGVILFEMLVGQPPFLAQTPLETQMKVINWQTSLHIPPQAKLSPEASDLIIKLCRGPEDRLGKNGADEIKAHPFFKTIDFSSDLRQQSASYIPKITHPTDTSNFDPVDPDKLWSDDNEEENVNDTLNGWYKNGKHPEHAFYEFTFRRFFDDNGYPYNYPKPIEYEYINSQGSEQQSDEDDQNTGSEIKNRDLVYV

[9] = target: protein kinases (human kinome) (Homo sapiens, UniProt Q00535); assay type: cell-based; conditions: experiment wp146
protein kinases (human kinome) (Homo sapiens, UniProt Q00535), sequence (Q00535 whole entry): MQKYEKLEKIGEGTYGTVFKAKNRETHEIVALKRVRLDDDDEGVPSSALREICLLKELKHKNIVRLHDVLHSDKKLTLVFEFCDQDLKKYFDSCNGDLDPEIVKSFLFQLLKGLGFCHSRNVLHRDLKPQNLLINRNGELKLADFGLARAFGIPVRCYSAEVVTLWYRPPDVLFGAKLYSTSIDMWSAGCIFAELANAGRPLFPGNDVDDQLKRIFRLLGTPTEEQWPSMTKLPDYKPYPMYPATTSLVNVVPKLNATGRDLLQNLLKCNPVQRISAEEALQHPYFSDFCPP

[10] = target: protein kinases (human kinome) (Homo sapiens, UniProt P06493); assay type: cell-based; conditions: CDK1 P06493; experiment wp146
protein kinases (human kinome) (Homo sapiens, UniProt P06493), sequence (P06493 whole entry): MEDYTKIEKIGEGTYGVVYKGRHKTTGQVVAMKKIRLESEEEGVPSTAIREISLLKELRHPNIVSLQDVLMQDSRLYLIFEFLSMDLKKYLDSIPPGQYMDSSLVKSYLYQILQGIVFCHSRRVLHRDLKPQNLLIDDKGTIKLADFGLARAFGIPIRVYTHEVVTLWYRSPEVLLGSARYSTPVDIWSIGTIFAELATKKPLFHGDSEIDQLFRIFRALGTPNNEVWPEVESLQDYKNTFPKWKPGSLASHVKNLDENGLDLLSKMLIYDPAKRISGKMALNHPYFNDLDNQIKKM

[11] = target: protein kinases (human kinome) (Homo sapiens, UniProt Q9BYT3); assay type: cell-based; conditions: STK33 (Q9BYT3-1), experiment wp146
[12] = target: T5, protein kinases (human kinome) (Homo sapiens, UniProt P33981); assay type: cell-based; conditions: experiment wp146
T5 sequence (P33981 1-857): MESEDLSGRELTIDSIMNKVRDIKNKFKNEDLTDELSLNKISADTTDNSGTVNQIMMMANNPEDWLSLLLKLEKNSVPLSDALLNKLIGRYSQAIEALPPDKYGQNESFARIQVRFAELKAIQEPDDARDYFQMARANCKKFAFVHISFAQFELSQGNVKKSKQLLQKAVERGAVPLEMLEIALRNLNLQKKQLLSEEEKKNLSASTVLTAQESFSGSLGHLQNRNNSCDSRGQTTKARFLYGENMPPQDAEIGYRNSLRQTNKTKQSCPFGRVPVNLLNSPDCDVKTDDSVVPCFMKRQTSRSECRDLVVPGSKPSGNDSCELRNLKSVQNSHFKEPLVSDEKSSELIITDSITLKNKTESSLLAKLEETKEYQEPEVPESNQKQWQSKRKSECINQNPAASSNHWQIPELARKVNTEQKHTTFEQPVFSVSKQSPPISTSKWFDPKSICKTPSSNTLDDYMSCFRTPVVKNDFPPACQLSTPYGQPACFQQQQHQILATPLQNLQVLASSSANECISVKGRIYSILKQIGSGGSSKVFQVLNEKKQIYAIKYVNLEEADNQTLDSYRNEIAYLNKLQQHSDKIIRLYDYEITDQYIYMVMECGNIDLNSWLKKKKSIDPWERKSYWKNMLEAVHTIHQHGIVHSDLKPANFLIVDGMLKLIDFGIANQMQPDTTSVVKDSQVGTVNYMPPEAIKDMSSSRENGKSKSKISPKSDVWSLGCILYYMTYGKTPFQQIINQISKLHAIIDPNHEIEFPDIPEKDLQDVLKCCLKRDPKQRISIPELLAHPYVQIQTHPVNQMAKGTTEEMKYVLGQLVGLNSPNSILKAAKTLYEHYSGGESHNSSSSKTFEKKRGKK

[13] = target: protein kinases (human kinome) (Homo sapiens, UniProt Q05397); assay type: cell-based; conditions: PTK2 Q05397; experiment wp146
protein kinases (human kinome) (Homo sapiens, UniProt Q05397), sequence (Q05397 whole entry): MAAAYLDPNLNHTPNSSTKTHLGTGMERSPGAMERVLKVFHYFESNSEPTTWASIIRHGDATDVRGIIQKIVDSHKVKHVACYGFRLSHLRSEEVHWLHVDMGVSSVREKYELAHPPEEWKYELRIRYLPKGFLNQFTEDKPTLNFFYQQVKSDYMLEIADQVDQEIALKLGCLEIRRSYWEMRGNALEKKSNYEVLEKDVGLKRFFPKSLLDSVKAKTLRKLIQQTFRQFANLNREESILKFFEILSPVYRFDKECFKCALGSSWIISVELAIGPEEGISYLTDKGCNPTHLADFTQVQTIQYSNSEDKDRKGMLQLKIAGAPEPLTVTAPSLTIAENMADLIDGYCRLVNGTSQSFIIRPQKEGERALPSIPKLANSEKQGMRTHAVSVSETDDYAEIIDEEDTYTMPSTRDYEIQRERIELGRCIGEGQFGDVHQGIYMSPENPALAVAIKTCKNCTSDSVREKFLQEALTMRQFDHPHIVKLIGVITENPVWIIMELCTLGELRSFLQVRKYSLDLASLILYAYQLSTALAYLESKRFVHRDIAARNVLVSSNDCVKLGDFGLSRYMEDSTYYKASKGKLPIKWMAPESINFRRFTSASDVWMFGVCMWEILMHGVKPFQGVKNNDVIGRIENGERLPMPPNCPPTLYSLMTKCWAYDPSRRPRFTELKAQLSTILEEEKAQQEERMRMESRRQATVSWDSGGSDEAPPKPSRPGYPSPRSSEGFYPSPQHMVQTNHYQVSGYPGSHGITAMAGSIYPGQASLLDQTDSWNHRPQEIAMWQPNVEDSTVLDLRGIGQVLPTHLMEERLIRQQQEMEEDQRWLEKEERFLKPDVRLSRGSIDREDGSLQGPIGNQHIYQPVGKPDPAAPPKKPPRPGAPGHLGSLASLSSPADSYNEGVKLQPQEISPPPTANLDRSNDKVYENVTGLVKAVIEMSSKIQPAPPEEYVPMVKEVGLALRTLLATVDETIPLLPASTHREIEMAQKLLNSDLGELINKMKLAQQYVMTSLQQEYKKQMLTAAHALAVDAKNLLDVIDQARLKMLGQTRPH

[14] = target: protein kinases (human kinome) (Homo sapiens, UniProt P51812); assay type: cell-based; conditions: RPS6KA3 (P51812), experiment wp146
protein kinases (human kinome) (Homo sapiens, UniProt P51812), sequence (P51812 whole entry): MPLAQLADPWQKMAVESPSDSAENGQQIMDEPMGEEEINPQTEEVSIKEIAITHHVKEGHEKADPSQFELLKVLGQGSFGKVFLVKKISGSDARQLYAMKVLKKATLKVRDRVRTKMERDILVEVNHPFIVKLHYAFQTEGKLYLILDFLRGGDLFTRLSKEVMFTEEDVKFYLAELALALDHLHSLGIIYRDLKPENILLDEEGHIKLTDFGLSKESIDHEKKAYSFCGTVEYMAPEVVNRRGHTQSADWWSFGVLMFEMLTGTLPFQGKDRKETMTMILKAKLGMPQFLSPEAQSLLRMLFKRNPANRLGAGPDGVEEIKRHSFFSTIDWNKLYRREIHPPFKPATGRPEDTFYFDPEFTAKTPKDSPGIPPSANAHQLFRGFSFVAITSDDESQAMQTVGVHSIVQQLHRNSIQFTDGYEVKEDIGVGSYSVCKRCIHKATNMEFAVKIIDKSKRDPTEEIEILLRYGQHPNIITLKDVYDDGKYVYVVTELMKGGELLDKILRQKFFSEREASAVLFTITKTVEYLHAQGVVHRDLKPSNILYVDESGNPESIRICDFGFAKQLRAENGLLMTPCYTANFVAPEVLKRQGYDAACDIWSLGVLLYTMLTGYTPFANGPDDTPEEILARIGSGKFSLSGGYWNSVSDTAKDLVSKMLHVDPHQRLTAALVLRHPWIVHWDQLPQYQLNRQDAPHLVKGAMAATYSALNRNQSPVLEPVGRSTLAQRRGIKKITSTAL

[15] = target: T6, protein kinases (human kinome) (Homo sapiens, UniProt O14965); assay type: cell-based; conditions: experiment wp146
T6 sequence (O14965 1-403): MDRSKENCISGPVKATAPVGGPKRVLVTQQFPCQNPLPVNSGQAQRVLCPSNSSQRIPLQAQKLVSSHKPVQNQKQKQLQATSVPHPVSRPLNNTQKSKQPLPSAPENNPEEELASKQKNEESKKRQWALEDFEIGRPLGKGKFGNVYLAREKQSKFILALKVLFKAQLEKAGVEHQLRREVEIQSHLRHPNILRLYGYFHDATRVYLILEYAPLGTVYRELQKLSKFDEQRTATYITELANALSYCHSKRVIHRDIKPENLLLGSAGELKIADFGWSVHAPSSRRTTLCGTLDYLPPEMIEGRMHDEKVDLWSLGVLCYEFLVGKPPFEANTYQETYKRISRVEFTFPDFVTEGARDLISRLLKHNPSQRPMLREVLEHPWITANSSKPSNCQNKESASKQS

[16] = target: protein kinases (human kinome) (Homo sapiens, UniProt P24941); assay type: cell-based; conditions: experiment wp146
[17] = test system: protein kinases (human kinome); assay type: cell-based
[18] = target: protein kinases (human kinome) (Homo sapiens, UniProt P45984); assay type: cell-based; conditions: MAPK9 P45984-1; experiment wp146
protein kinases (human kinome) (Homo sapiens, UniProt P45984), sequence (P45984 whole entry): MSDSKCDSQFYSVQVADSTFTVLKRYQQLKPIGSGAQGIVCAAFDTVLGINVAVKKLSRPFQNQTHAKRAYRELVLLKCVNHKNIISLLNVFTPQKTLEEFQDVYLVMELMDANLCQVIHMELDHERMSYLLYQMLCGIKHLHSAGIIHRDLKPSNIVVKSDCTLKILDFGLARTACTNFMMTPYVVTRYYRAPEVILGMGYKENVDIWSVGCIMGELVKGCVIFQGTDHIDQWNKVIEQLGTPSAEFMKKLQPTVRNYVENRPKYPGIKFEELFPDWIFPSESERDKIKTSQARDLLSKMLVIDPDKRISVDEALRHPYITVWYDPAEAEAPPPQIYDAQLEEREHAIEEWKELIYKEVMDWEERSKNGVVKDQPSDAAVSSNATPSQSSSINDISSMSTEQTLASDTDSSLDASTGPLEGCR

[19] = AURKB Q96GD4-5, experiment wp146

## CC(=O)c1c(C)c2cnc(Nc3ccc(N4CCN(CCOCCOCCOCCNC(=O)COc5cccc6c5C(=O)N(C5CCC(=O)NC5=O)C6=O)CC4)cn3)nc2n(C2CCCC2)c1=O (centres unmarked) [BS.J.03.123]
[1]
  logFC TBRG4: −0.5

## C[C@@H]1C[C@@H](O)c2ncnc(N3CCN(C(=O)[C@H](CNCCCCCCCCCCc4cccc5c4C(=O)N(C4CCC(=O)NC4=O)C5=O)c4ccc(Cl)cc4)CC3)c21 (some centres unmarked) [INY.03.041_01]
[2]; experiment wp135, 8 hr
  logFC IP6K2: −0.6456
[3]
  logFC: −2.274
[3]; direction down
  logFC: −2.274
[4]; AKT1 (P31749), experiment wp135, 8 hr
  logFC: −2.273
[4]; experiment wp135, 8 hr
  logFC of AKT1 (P31749): −2.273
[5]
  logFC CDK4 (P11802): −0.3281
[6]; experiment wp135, 8 hr
  logFC: −0.497
[7]
  logFC: −2.215
[7]; direction down
  logFC: −2.215

## Cc1ncsc1-c1ccc([C@H](C)NC(=O)[C@@H]2C[C@@H](O)CN2C(=O)[C@@H](NC(=O)CCCCOc2ccccc2-c2ccc3nc(-c4cccnc4N)n(-c4ccc(C5(N)CCC5)cc4)c3n2)C(C)(C)C)cc1 [INY.04.125.01]
[2]; experiment wp195
  logFC IP6K2: −0.4946
[6]; experiment wp195
  logFC: −0.4084
  logFC STK17A: −0.4084
[8]
  logFC: −0.4176
  logFC LATS1: −0.4176

## Cc1cc(S(=O)(=O)NCCOCCOCCOCCOCCNc2cccc3c2C(=O)N(C2CCC(=O)NC2=O)C3=O)ccc1Nc1ncc(Br)c(Nc2cccc(F)c2C(N)=O)n1 (centres unmarked) [TMX.02.172]
[9]
  logFC CDK5 (Q00535): −2.878
[9]; direction of change down
  logFC CDK5 (Q00535): −2.878
[10]
  logFC: −1.302
  logFC CDK1: −1.302
[11]
  logFC: −1.295
[11]; direction down
  logFC: −1.295
[12]; Accession P33981
  logFC TTK: −0.7542
[12]
  logFC TTK (P33981): −0.7542
[13]
  logFC: −0.7381
  logFC PTK2: −0.7381
[14]
  logFC: −0.8349
[14]; direction down
  logFC: −0.8349
[15]
  logFC AURKA (O14965): −2.402
[16]
  logFC CDK2 (P24941-1): −2.199
[16]; direction of change down
  logFC CDK2 (P24941-1): −2.199
[17]; [19]
  logFC: −0.4856
  logFC AURKB: −0.4856
[17]; Experiment wp146, direction down
  logFC MAPK8 (P45983-4): −0.5524
[17]; MAPK8 P45983-4, experiment wp146
  logFC MAPK8: −0.5524
[17]; RPS6KA1 (Q15418-2), experiment wp146
  logFC RPS6KA1: −1.351
[17]; experiment wp146
  logFC RPS6KA1 (Q15418-2): −1.351
[18]
  logFC: −1.091
  logFC MAPK9: −1.091

Source: patent US20240269139A1, “COMPOUNDS FOR TARGETED PROTEIN DEGRADATION OF KINASES” (DANA-FARBER CANCER INSTITUTE, INC., priority 2020, published 2024)
